Measured values from the NIST ThermoML archive (doi:10.1016/j.tca.2007.04.007).

Assay: molar heat capacity at constant pressure
Conditions: 101.33 kPa, Crystal, Large sample (1 g) DSC

C[C@@H]1CC[C@H]2[C@@H](C)C(=O)O[C@@H]3O[C@@]4(C)CC[C@@H]1[C@]32OO4 [artemisinin]
Conditions | molar heat capacity at constant pressure [J/K/mol]
80.88 K | 106.29
84.39 K | 107.4
87.31 K | 111.29
90.28 K | 115.11
93.15 K | 118.77
96.08 K | 122.29
99.06 K | 126.22
101.96 K | 129.96
104.91 K | 133.57
107.91 K | 137.36
110.85 K | 141.04
113.72 K | 144.58
116.65 K | 147.72
119.63 K | 151.4
122.57 K | 154.67
125.44 K | 158.04
128.38 K | 161.18
131.37 K | 164.32
134.31 K | 167.29
137.21 K | 170.2
140.06 K | 173.58
142.85 K | 175.98
145.7 K | 178.74
148.61 K | 181.39
151.48 K | 184.15
154.31 K | 188.26
157.09 K | 189.51
159.85 K | 190.78
162.66 K | 193.14
165.54 K | 194.65
168.38 K | 196.91
171.2 K | 197.84
173.98 K | 199.03
176.74 K | 201.03
179.47 K | 203.22
182.17 K | 204.81
184.93 K | 207.17
187.75 K | 209.02
190.54 K | 210.2
193.3 K | 211.69
196.04 K | 214.53
198.78 K | 218.09
201.49 K | 234.61
204.35 K | 248.75
207.26 K | 254.52
210.15 K | 259.16
213.03 K | 263.67
215.98 K | 268.33
218.98 K | 272.61
221.97 K | 277.47
224.93 K | 283.14
227.86 K | 300.11
230.9 K | 305.21
234.15 K | 304.08
237.2 K | 300.49
240.2 K | 312.96
243.25 K | 303.71
246.2 K | 290.19
249.15 K | 291.35
252.08 K | 292.72
254.99 K | 294.78
257.88 K | 295.87
260.75 K | 297.43
263.6 K | 299.57
266.43 K | 301.66
269.3 K | 304.16
272.21 K | 307.87
275.11 K | 309.22
278.48 K | 312.58
282.32 K | 315.57
286.12 K | 318.4
289.88 K | 323.79
293.71 K | 327.62
297.59 K | 331.62
301.45 K | 336.33
305.28 K | 339.95
309.08 K | 344.57
312.86 K | 351.73
316.64 K | 334.75
320.44 K | 337.71
324.16 K | 338.79
327.84 K | 344.42
331.58 K | 356.39
335.37 K | 360.69
339.11 K | 368.06
342.41 K | 376.18
345.26 K | 376.26
348.11 K | 388.36
350.96 K | 394.39
353.85 K | 397.54
356.81 K | 403.86
359.88 K | 413.08
363.03 K | 429.5
